Data reported in patent US5141929A, “Lipophilic ethers and/or esters of D-desosamine and their compositions as anti-bacteria and anti-fungus agents” (Societe Anonyme dite: L'Oreal, priority 1988, dated 1992).
Converted amounts (≈) assume the structure as drawn. Read-outs that look alike come from different tables or passages of the source.

Tests used:
P37 E⊕ (sensitive) = assay: MIC by dilution method, erythromycin-sensitive P. acnes strain P37 E⊕; assay type: cell-based, propionibacterium acnes; conditions: for MIC: Cutibacterium acnes
Text: (§1) The activity of the esters and/or ethers of D-desosamine has been studied by the dilution method to determine the minimum inhibiting concentration (MIC) This method is described and employed by G.A. Denys et al, Antimicrobial Agents and Chemotherapy (1983) 23, 335-337 and J.J. Leyden et al, J. Am. Acad. Dermatol. (1983) 8 (1) 41-5, by using as the procionibacterium acnes strain, strain P37 furnished by Cunliffe and Holland.
(§2) On the other hand, after 8 successive sub-cultures in the same medium (RCM* 19/20, DMSO […] by volume) with the view of obtaining a progressive stabilization of this strain in this medium, a progressive resistance to erythromycin was manifested in the following form:
(§3) after spreading a standardized inoculum (DO=1.8 at 450 nm) on a gelose medium (RCM+furazolidone), in a Petri dish, a 9 mm diameter disc is deposited at its center. On the disc, 50 μg of erythromycin (in solution in DMSO) are deposited.
(§4) After 6 days at 36° C. in an anerobic medium (GAS-PAK, B.B.L. system) an inhibition zone of the growth of the strain is clearly visible (total diameter=42 mm), the majority of the colonies being situated at the periphery of the inhibition zone.
(§5) The two types of colonies are then retained by stripping of the gelose medium (sterilized platinum loop):
(§6) (2) at 1 cm beyond the periphery of the inhibition zone, there are stripped off strains called P37 E⊕.
(§7) After isolation and culturing, the P37 E⊕ and P37 E⊖ strains effectively show very different sensitivities to erythromycin as illustrated by the following respective MIC values.
(§8) The minimum inhibiting concentration (MIC), expressed in μg/ml of the esters and/or ethers of D-desosamine tested vis-a-vis strains of propionibacterium Acnes P37, P37E⊕ and P37E⊖ and staphilococcus epidermidis ATCC 12228, is reported in the following Table I.

[1] = system: propionibacterium Acnes P37; assay: MIC by dilution method, Propionibacterium acnes strain P37; assay type: cell-based; conditions: for MIC: Cutibacterium acnes
Text: as §1
This P37 strain has been the object of studies described in the following publications:
as §8

[2] = system: staphilococcus epidermidis ATCC 12228; assay: MIC by dilution method, staphilococcus epidermidis ATCC 12228; assay type: cell-based; conditions: Table I; for MIC: read-out: minimum inhibiting concentration (MIC), ATCC 12228
Text: as §1, §8

P37 E⊖ (resistant) = assay: MIC by dilution method, erythromycin-resistant P. acnes strain P37 E⊖; assay type: cell-based, propionibacterium acnes; conditions: for MIC: Cutibacterium acnes
Text: as §1, §2, §3, §4, §5
(§9) (1) at the interior of the inhibition zone there are stripped off strains, called P37 E⊖ by reason of their apparent resistance to erythromycin.
as §7, §8

P37 E⊕ = assay: IC 50 (50% survivors at constant culturing time), strain P37 E⊕; assay type: cell-based, propionibacterium acnes; conditions: Cutibacterium acnes, read-out: IC 50 (inhibiting concentration at 50%), P37 E⊕
Text: as §6
(§10) This phenomenon is confirmed by the study of the IC 50 (inhibiting concentration at 50%) which represents the concentration of erythromycin where, at a constant culturing time, 50% survivors among the population are found.

P37 [3] = assay: IC 50 (50% survivors at constant culturing time), strain P37; assay type: cell-based, propionibacterium acnes; conditions: Cutibacterium acnes, read-out: IC 50 (inhibiting concentration at 50%), P37
Text: as §10

P37 [4] = assay: Disc diffusion inhibition zone on gelose medium, sub-cultured strain P37; assay type: cell-based, propionibacterium acnes; conditions: Cutibacterium acnes, 144 h, read-out: inhibition zone of the growth of the strain, total diameter
Method: as §2, §3, §4

P37 E⊖ = assay: IC 50 (50% survivors at constant culturing time), strain P37 E⊖; assay type: cell-based, propionibacterium acnes; conditions: Cutibacterium acnes, read-out: IC 50 (inhibiting concentration at 50%), P37 E⊖
Text: as §9, §10

[5] = Table I, erythromycin-sensitive, read-out: minimum inhibiting concentration (MIC), P37 E⊕ (sensitive)
[6] = ACNESP37, Table I, P. acnes P37, read-out: minimum inhibiting concentration (MIC), P37
[7] = read-out: minimum inhibiting concentration (MIC), P37 E⊖ (resistant)

Row | Compound | MIC (P37 E⊕ (sensitive); [5]) [µg/mL] | MIC [1, 6] [µg/mL] | MIC [2] [µg/mL] | MIC (P37 E⊖ (resistant); [7]) [µg/mL] | other results
1 | CCCCCCCCO[C@@H]1O[C@H](C)C[C@H](N(C)C)[C@H]1OCCCCCCCC [Compound 16, di-O-octyl-1,2-β-D-desosamine] | 0.3 (≈ 0.751 µM) | 0.7 (≈ 1.75 µM) | 1.2 (≈ 3 µM) | 0.15 (≈ 0.375 µM) | 
2 | CCCCCCCCCCCC(=O)O[C@H]1C(OC)O[C@H](C)C[C@@H]1N(C)C (stereo partly drawn) [Compound 4, O-dodecanoyl-2-O-methyl-1-α,β-D-desosamine] | 15 (≈ 40.4 µM) | 25 (≈ 67.3 µM) | 3.8 (≈ 10.2 µM) |  | 
3 | CC[C@H]1OC(=O)[C@H](C)[C@@H](O[C@H]2C[C@@](C)(OC)[C@@H](O)[C@H](C)O2)[C@H](C)[C@@H](O[C@@H]2O[C@H](C)C[C@H](N(C)C)[C@H]2O)[C@](C)(O)C[C@@H](C)C(=O)[C@H](C)[C@@H](O)[C@]1(C)O [erythromycin] |  |  |  |  | IC50 (P37 E⊕): 5 µg/mL (≈ 6.81 µM); MIC (P37 E⊕ (sensitive); read-out: MIC, P37 E⊕): 0.78 µg/mL (≈ 1.06 µM); IC50 (P37 [3]): 50 µg/mL (≈ 68.1 µM); MIC ([1]; ACNESP37, read-out: minimum inhibiting concentration (MIC), P37): 0.78 µg/mL (≈ 1.06 µM); zone of inhibition at 50 µg/disc (P37 [4]): 42 mm; IC50 (P37 E⊖): 100 µg/mL (≈ 136 µM); MIC (P37 E⊖ (resistant); read-out: MIC, P37 E⊖): 50 µg/mL (≈ 68.1 µM)
4 | O-dodecanoyl-2'-erythralosamine [Compound 18] |  |  |  |  | minimum inhibiting concentration (MIC), P37 E⊕ (sensitive) (P37 E⊕ (sensitive); Table I, erythromycin-sensitive): 12.5 µg/mL; minimum inhibiting concentration (MIC), P37 ([1]; Table I, P. acnes P37): 0.4 µg/mL; minimum inhibiting concentration (MIC), ATCC 12228 [2]: 1.5 µg/mL; minimum inhibiting concentration (MIC), P37 E⊖ (resistant) (P37 E⊖ (resistant); Table I, erythromycin-resistant): 0.4 µg/mL
5 | CCCCCCCCCCCCCCCCCCO[C@H]1C(OCCCC)O[C@H](C)C[C@@H]1N(C)C (stereo partly drawn) [Compound 8, O-octadecyl-2-O-butyl-1-α,β-D-desosamine] | < 0.03 | 0.25 (≈ 0.517 µM) | 2.2 (≈ 4.55 µM) | 8.8 (≈ 18.2 µM) | 
6 | CCCCCCCCCCCO[C@H]1C(OCCCCCCCCCC)O[C@H](C)C[C@@H]1N(C)C (some centres unmarked) [Compound 11] | 0.7 (≈ 1.49 µM) | 4 (≈ 8.51 µM) | 0.7 (≈ 1.49 µM) | 0.8 (≈ 1.7 µM) | 
7 | CCCCCCCCCCCC(=O)O[C@H]1C(OCCCC)O[C@H](C)C[C@@H]1N(C)C (stereo partly drawn) [Compound 2, O-dodecanoyl-2-O-butyl-1-α,β-D-desosamine] | 0.6 (≈ 1.45 µM) | 0.4 (≈ 0.967 µM) | 3.5 (≈ 8.46 µM) | 0.9 (≈ 2.18 µM) | 
8 | CCCCCCCCCCCO[C@H]1[C@H](OCCCCCCCCCC)O[C@H](C)C[C@@H]1N(C)C [Compound 13] | 0.5 (≈ 1.06 µM) | 1 (≈ 2.13 µM) | 0.06 (≈ 0.128 µM) | 0.02 (≈ 0.0426 µM) | 
9 | CCCCCCCCCCCCCCCCCCO[C@H]1[C@@H](OCCCC)O[C@H](C)C[C@@H]1N(C)C [Compound 9, O-octadecyl-2-O-butyl-1-α-D-desosamine] |  | 0.1 (≈ 0.207 µM) | 0.8 (≈ 1.65 µM) | 27.5 (≈ 56.8 µM) | MIC (P37 E⊕ (sensitive); read-out: minimum inhibiting concentration (MIC), P37 E⊕ (sensitive)): 27.5 µg/mL (≈ 56.8 µM)
10 | CCCCCCCCCCCC(=O)O[C@H]1[C@H](OCCCC)O[C@H](C)C[C@@H]1N(C)C [Compound 3, O-dodecanoyl-2-O-butyl-1-β-D-desosamine] | 0.1 (≈ 0.242 µM) | 15 (≈ 36.3 µM) |  | 1.9 (≈ 4.59 µM) | 
11 | CCCCC/C=C\C/C=C\CCCCCCCC(=O)O[C@H]1C(OCCCC)O[C@H](C)C[C@@H]1N(C)C (stereo partly drawn) [Compound 6, O-linoleoyl-2-O-butyl-1-α,β-D-desosamine] | 0.7 (≈ 1.42 µM) | 0.4 (≈ 0.81 µM) | 0.2 (≈ 0.405 µM) | 0.8 (≈ 1.62 µM) | 
12 | CCCCCCCCCCCCC(CCCCCCCCCC)CO[C@H]1C(OCCCC)O[C@H](C)C[C@@H]1N(C)C (stereo partly drawn) [Compound 17, O-(2-decyl)-tetradecyl-2-O-butyl-1-α,β-D-desosamine] | 11 (≈ 19.4 µM) | 12.5 (≈ 22 µM) |  | 6 (≈ 10.6 µM) | 
13 | CCCCCCCCCCCO[C@H]1[C@@H](OCCCCCCCCCC)O[C@H](C)C[C@@H]1N(C)C [Compound 12] | 1 (≈ 2.13 µM) | 1.8 (≈ 3.83 µM) | 0.8 (≈ 1.7 µM) | 0.8 (≈ 1.7 µM) | 
14 | CCCCCCCCCC(=O)O[C@H]1C(OCCCC)O[C@H](C)C[C@@H]1N(C)C (stereo partly drawn) [Compound 1, O-decanoyl-2-O-butyl-1-α,β-D-desosamine] | 9 (≈ 23.3 µM) | 9 (≈ 23.3 µM) | 5 (≈ 13 µM) | 3.2 (≈ 8.3 µM) | 
15 | CCCCCCCCO[C@H]1O[C@H](C)C[C@H](N(C)C)[C@H]1OCCCCCCCC [Compound 15, di-O-octyl-1,2-α-D-desosamine] | 1 (≈ 2.5 µM) | 1.8 (≈ 4.5 µM) | 0.3 (≈ 0.751 µM) | 0.4 (≈ 1 µM) | 
16 | CCCCCCCCCCCC(=O)O[C@H]1[C@@H](OC)O[C@H](C)C[C@@H]1N(C)C [Compound 5, O-dodecanoyl-2-O-methyl-1-α-D-desosamine] | 50 (≈ 135 µM) | 50 (≈ 135 µM) | 3.2 (≈ 8.61 µM) |  | 
17 | CCCCCCCCOC1O[C@H](C)C[C@H](N(C)C)[C@H]1OCCCCCCCC (stereo partly drawn) [Compound 14, di-O-octyl-1,2-α,β-D-desosamine] | 0.6 (≈ 1.5 µM) | 0.5 (≈ 1.25 µM) | 0.5 (≈ 1.25 µM) | 0.1 (≈ 0.25 µM) | 
18 | CCCCCCCCCCCCCCCCCCO[C@H]1[C@H](OCCCC)O[C@H](C)C[C@@H]1N(C)C [Compound 10] | 0.09 (≈ 0.186 µM) | 3.12 (≈ 6.45 µM) | 0.04 (≈ 0.0827 µM) | 1.56 (≈ 3.22 µM) | 
19 | CCCCC/C=C\C/C=C\CCCCCCCC(=O)O[C@H]1[C@@H](OCCCC)O[C@H](C)C[C@@H]1N(C)C [Compound 7, O-linoleoyl-2-O-butyl-1-α-D-desosamine] | 1.1 (≈ 2.23 µM) | 0.15 (≈ 0.304 µM) | 1.1 (≈ 2.23 µM) |  | 
